Test results reported in patent publication US20140341916A1, “THERAPEUTIC COMBINATIONS AND METHODS OF TREATING MELANOMA” (Genentech, Inc., priority 2011, published 2014).

Legend:
A2058 melanoma xenograft = test: In vivo efficacy, subcutaneous melanoma xenograft, tumor volume / % TGI; design: species or system mice; conditions: for % TGI Single Agent BRAFi vs. control: A2058
Experimental: Next, efficacy studies were performed using the melanoma cells lines in the xenografts mouse models described above. All studies were conducted in accordance with the Guide for the Care and Use of Laboratory Animals (Ref: Institute of Laboratory Animal Resources (NIH publication no. 85-23), Washington, D.C.: National Academies Press; 1996). 10- to 14-week-old female CRL Nu/Nu or NCr nude mice from Charles River Laboratories were inoculated subcutaneously in the dorsal right flank with either 5×10^6 UACC-257X2.2 cells in HBSS with Matrigel or 5×10^6 A2058 cells in HBSS with Matrigel. When tumor volumes reached approximately 200 mm^3 (day 0), animals were randomized into groups of 10 each.
For single agent efficacy studies, the anti-ETBR ADC candidate Hu5E9v1-ADC was administered as a single intravenous (IV) injection on day 0 at 1 mpk, 3 mpk, or 6 mpk (mg/kg). A control ADC antibody and vehicle control were also administered. Average tumor volumes with standard deviations were determined from 10 animals per group. Tumor volumes were measured twice per week until study end.
The average tumor volumes were determined from 10 animals per group. Tumor volumes were measured twice per week until study end. Tumor volumes were measured in two dimensions (length and width) using UltraCal IV calipers (Model 54 10 111, Fred V. Fowler Company; Newton, Mass.). The following formula was used with Excel, version 12.2.8 (Microsoft; Redmond, Wash.) to calculate tumor volume: Tumor Volume (mm3)=[…]
To analyze the repeated measurement of tumor volumes from the same animals over time, a mixed-modeling Linear Mixed Effects (LME) approach was used (Pinheiro et al. 2009). This approach can address both repeated measurements and a modest drop-out rate due to non-treatment-related termination of animals prior to study end. Cubic regression splines were used to fit a non-linear profile to the time courses of log 2 tumor volume at each dose level. These non-linear profiles were then related to dose within the mixed model. Tumor growth inhibition (TGI) as a percentage of vehicle was calculated as percent area under the fitted curve (AUC) per day in relation to the vehicle, using the following formula:
Using this formula, a TGI value of 100% indicates tumor stasis, of >1% but <100% indicates tumor growth delay, and of >100% indicates tumor regression. To get uncertainty intervals (UIs) for % TGI, the fitted curve and the fitted covariance matrix were used to generate a random sample as an approximation to the distribution of % TGI. The random sample is composed of 1000 simulated realizations of the fitted-mixed model, where the % TGI has been recalculated for each realization. Here, in the reported UI is the value for which 95% of the time, the recalculated values of % TGI will fall in this region given the fitted model. The 2.5 and 97.5 percentiles of the simulated distribution were used as the […] UIs.
Tumors were grown to an average size of approximately 200 mm^3, whereupon animals were randomized into groups of 10 each. […] A single dose of Hu5E9v1-ADC at either 3 mpk or 6 mpk or control, a histidine buffer #8, was administered intraveneously into the tail vein on day 1 (after three doses of RG7204).
To do this, the in vivo efficacy for various combinations of Hu5E9v1-ADC and MEKi-623 and/or MEKi-973 were evaluated against A2058 and SK-MEL-23 and IPC-298 melanoma in vivo models, performed as described above in Example 4. An appropriate methylcellulose tween vehicle control (0.5% methylcellulose, 0.2% Tween-80 (MCT) or MEK inhibitor at doses of 1 mpk, 3 mpk or 7.5 mpk were administered orally once a day×21 days beginning on study Day 0. A single 3 mpk or 6 mpk dose of Hu5E9v1-ADC or control, a histidine buffer #8, was administered intraveneously (after two doses of a MEK inhibitor) via tail vein at study Day 1.

A2058 = test: In vitro killing of A2058 by RG7204 (data not shown); format: cell-based, human
Phosphorylated erk = test: PD study, phosphorylated erk in COLO 829 tumors, Western blot; format: in vivo, mice; conditions: 30 mpk BRAFi RG7204
Experimental: A2058 or COLO 829 tumors were grown to an average size of approximately 200 mm^3, whereupon animals were randomized into groups of 5-6 each. For the BRAFi PD study, an appropriate vehicle control (Klucel LF) or RG7204 at doses of 10 mpk or 30 mpk were administered twice a day for 3 days (FIG. 27A). For the MEKi PD study, an appropriate vehicle control or MEKi-973 at doses of 5 mpk and 10 mpk were administered orally once a day for 3 days (FIG. 27B). Flash frozen tumors harvested at end of study were homogenized and processed for RNA and/or protein. Taqman assays were set up using reagents from Applied Biosystems (ABI, Foster City, Calif.) and assayed using 7500 Real Time PCR machine and software from ABI. Primer-probe sets were designed with primers flanking a fluorogenic probe dual labeled with Reporter dye FAM and quencher dye TAMRA. […]
Phosphorylated erk and total erk protein levels were evaluated in the tumors by western blotting using the following reagents: for detection of proteins: anti-Phospho-p44/42 MAPK (Erk1/2) (Thr202/Tyr204) antibody (9101, Cell Signaling Technology), anti-p44/42 MAPK (Erk1/2) antibody (9102, Cell Signaling Technology) and mouse monoclonal anti-β-Tubulin antibody (556321, BD Pharmingen) as control (FIG. 26).

## CCCS(=O)(=O)Nc1ccc(F)c(C(=O)c2c[nH]c3ncc(-c4ccc(Cl)cc4)cc23)c1F [RG7204, propane-1-sulfonic acid {3-[5-(4-chlorophenyl)-1H-pyrrolo[2,3-b]pyridine-3-carbonyl]-2,4-difluoro-phenyl}-amide]
A2058 melanoma xenograft; 10 mg/kg RG7204 alone, orally twice a day 21 days
  single agent efficacy: did not show single agent efficacy
A2058 melanoma xenograft; BRAFi Qdx21 10 mg/kg
  % TGI Single Agent BRAFi vs. control: 13%
A2058 melanoma xenograft; BRAFi Qdx21 30 mg/kg
  % TGI Single Agent BRAFi vs. control: 38%
A2058
  in vitro killing efficacy: > 20 µM
Phosphorylated erk
  Perk in tumors vs control: appears to inhibit Perk in vivo
